Tests used:
[1] = Parecoxib concentration in synovial joint fluid after Bio-Gel injection in Hoffa's fat pad (HPLC); type: in vivo, Wistar rats; details: 0.1 ml Bio-Gel containing 500 μg Parecoxib in Hoffa's fat pad
Method: After induction of general anaesthesia, both knees of Wistar rats were shaved and prepared for aseptic surgery. The centre of the patella tendon was identified. A 28 G needle with a 1 ml syringe was used to penetrate the centre patella tendon. Directly after the patella tendon is penetrated and 0.1 ml of the Bio-Gel containing 500 μg of Parecoxib was injected in Hoffa's fad pad. Directly after injection, 1 day, 5 days, 10 days and 30 days after injection the rats were sacrificed.
The concentration of parecoxib in the SJF was examined using a high-performance liquid chromatography

[2] = system: cartilage only defect on medial femoral condyles; experiment: Goat cartilage defect repair (MACI / microfracture) with Bio-Gel containing Parecoxib in Hoffa's fatpad; type: in vivo, Dutch milk goats; details: controlled release from Hoffa's fatpad; summary statement
Method: Surgical procedure: Skeletally mature Dutch milk goats were used for this study. During the first operation, both knee joints of the goats were opened using a medial parapatellar incision. Using a 8 mm in diameter dermal punch a cartilage only defect was created on both medial femoral condyles. The cartilage of both sides was minced and after an overnight collagenase treatment, cells were isolated and expanded in monolayer. […] Consequently these cells were seeded and allowed to attach in a collagen carrier for 24 hrs as described earlier as Matrix-supported Autologous Chondrocyte Implantation (MACI). Hereafter a second operation was performed. The knee joints were opened and one the cartilage defect of one knee joint was repaired using the MACI method. The defect in the other knee joint was repaired using microfracturing as described by […] et al. In 10 goats Hoffa's fatpad was injected (as described earlier) with a Bio-Gel containing 1.5 mg of Parecoxib, in 10 goats Hoffa's fatpad was injected (as described earlier) with a Bio-Gel only, and in 10 goats no injection was performed. Goats were allowed full-weight bearing after both surgical procedures. Histological evaluation: 3 months after the second operation, goats were sacrificed. […] Mankin scores for OA grading and O'Driscoll scores for cartilage repair were scored by 2 blinded individuals.

[3] = system: anterior cruciate ligament-transected (ACLT) knees; details: cited from earlier work
[4] = intra-articular parecoxib injection

intra-articular level of parecoxib ([1]; after 30 days follow): remained stable
time of maximum parecoxib level in the SJF ([1]; time after injection): 1 days
SMILES: CCC(=O)NS(=O)(=O)c1ccc(-c2c(-c3ccccc3)noc2C)cc1 [Parecoxib]
cartilage repair using MACI and microfracturing [2]: significantly improved
cartilage degeneration ([3]; ACLT knees, intra-articular injection): significant inhibition
effect on cartilage and synovium of normal knees ([3]; intra-articular parecoxib alone, naive rats): did not have any effect
glutamate and aspartate levels [3, 4]: reduced
synovial inflammation [3, 4]: suppressed

Reference: patent US8962666B2, “Method for improving cartilage repair and/or preventing cartilage degeneration in a joint” (Maastricht University, priority 2009, dated 2015)
